# Test results: patent US10550155B2, “Anticancer peptides” (priority 2018, dated 2020)
# Where two headings read alike, the source gives them in different places. Where a SMILES comes first, the peptide text is derived from it. Bridges are numbered along the chain shown (N, C = ends). Roman numbers before positions name the chains, in order. Where no end group is shown, it is not given here. [ ]: non-standard residue; d: D form.
# Columns and labels:
# [1] = system: NIH-3T3 murine fibroblast cell line; assay: MTT cytotoxicity assay, 3T3 cells; format: cell-based, mouse
# Protocol: (§1) The cytotoxic as well as antiproliferative effect of peptides was determined using MTT [3-(4, 5-dimethylthiazol-2-yl)-2, 5-diphenyl tetrazolium bromide] colorimetric assay. MCF-7, NIH-3T3, HeLa and H460 cells were cultured and after confluency, cells were used to test the cytotoxicity by MTT assay. Briefly (3×10^4/mL) of MCF-7 and (2×10^4/mL) cells of NIH-3T3, HeLa and H460 were seeded in 96-wells plate and incubated at 37° C. in 5% CO2 for 24 h. The MCF-7 cells were then treated with different doses of peptides and re-incubated in 5% CO2 at 37° C. for 48 hours. […] Experiment was performed three times and all doses were repeated in triplicate and the calculations were done using formula for percent inhibition.
# [2] = MTT cytotoxicity assay, 3T3 cells; format: cell-based, mouse; conditions: mouse; for IC50: Cytotoxicity IC50, 3T3
# Protocol: as §1
# H460 cells = assay: MTT cytotoxicity assay, H460 cells; format: cell-based
# Protocol: as §1
# [3] = system: DoHH2 cells (B-cell lymphoma); assay: Alamar blue viability assay, DoHH2 cells; format: cell-based
# Protocol: The viability of DoHH2 cells was determined by Alamar blue assay. Briefly 200 μl of 1×10^5 cells/ml were incubated with different concentrations of compounds for 24 hours. A one-tenth volume of Alamar blue was then added and the incubation continued for 4 hrs. Absorbance was read in spectrophotometer at wavelengths of 570 nm and 600 nm.
# HeLa cells = assay: MTT cytotoxicity assay, HeLa cells; format: cell-based
# Protocol: as §1
# [4] = system: MCF-7 human breast cancer cell line; assay: MTT cytotoxicity assay, MCF-7 cells; format: cell-based
# Protocol: as §1
# THP-1 monocytes = conditions: cited from earlier work
# HepG2 cells = conditions: cited from earlier work
# [5] = system: Leishmania infantum promastigote and amastigote; conditions: cited from earlier work
# [6] = system: bacteria, yeasts, fungi, and protozoa; conditions: cited from earlier work
# [7] = system: THP-1-derived macrophages; conditions: cited from earlier work
# human erythrocytes = conditions: cited from earlier work
# fibroblasts = conditions: cited from earlier work
# MCF-7 cells = assay: Cell-growth on bead assay; format: cell-based, human; conditions: peptide on bead
# [8] = MTT, 48 hours, read-out: Cytotoxicity IC50, H460
# [9] = Alamar blue, 24 hours, read-out: Cytotoxicity IC50, DoHH2
# [10] = MTT, 48 hours, read-out: Cytotoxicity IC50, HeLa
# [11] = MTT, 48 hours, read-out: Cytotoxicity IC50, MCF-7
molecule,measurement,setting,value
"CC[C@H](C)[C@H](NC(=O)[C@@H](C)NC(=O)[C@H](CO)NC(=O)[C@H](CC(C)C)NC(=O)[C@@H](N)Cc1ccccc1)C(=O)N[C@H](C(=O)N[C@H](C)C(=O)N[C@@H](CCSC)C(=O)N[C@@H](CC(C)C)C(=O)N[C@H](C)C(=O)N[C@@H](CCCCN)C(=O)N[C@@H](CC(C)C)C(=O)N[C@@H](Cc1ccccc1)C(N)=O)C(C)C [compound 6, F-L-S-a-I-V-a-M-L-a-K-L-F] (H-FLS[dA]IV[dA]ML[dA]KLF-NH2)",Cytotoxicity against 3T3 cell line (in words),[1],inactive
same,IC50 at 48 h,[2],> 100 µM
same,IC50,"H460 cells; human, 48 h",> 100 µM
same,IC50,"[3]; human, 24 h",> 100 µM
same,IC50,"HeLa cells; human, 48 h",> 100 µM
same,IC50,"[4]; human, 48 h",26.3 ± 5.8 µM
CC[C@H](C)[C@H](NC(=O)CNC(=O)[C@H](CO)NC(=O)[C@H](CC(C)C)NC(=O)[C@@H](N)Cc1ccccc1)C(=O)N[C@H](C(=O)NCC(=O)N[C@@H](CCSC)C(=O)N[C@@H](CC(C)C)C(=O)N[C@H](C)C(=O)N[C@@H](CCCCNC(=O)[C@H](CC(C)C)NC(=O)[C@H](Cc1ccccc1)NC(=O)[C@H](CCCCN)NC(=O)[C@H](CCC(N)=O)NC(=O)[C@H](Cc1ccc(O)cc1)NC(=O)[C@H](C)NC(=O)[C@H](C)NC(=O)[C@H](CCC(=O)O)NC(=O)[C@H](CC(C)C)NC(=O)[C@@H](N)Cc1c[nH]c2ccccc12)C(=O)N[C@@H](CC(C)C)C(=O)N[C@@H](Cc1ccccc1)C(N)=O)C(C)C [conjugate 7] (I: H-FLSGIVGML[dA]KLF-NH2 / II: H-WLEAAYQKFL; amide I:11-II:C),IC50 at 48 h,[2],> 100 µM
same,IC50,"H460 cells; human, 48 h",> 100 µM
same,IC50,"[3]; human, 24 h",> 100 µM
same,IC50,"HeLa cells; human, 48 h",> 100 µM
"CC[C@H](C)[C@H](NC(=O)[C@@H](C)NC(=O)[C@H](CO)NC(=O)[C@H](CC(C)C)NC(=O)[C@@H](N)Cc1ccccc1)C(=O)N[C@H](C(=O)N[C@H](C)C(=O)N[C@@H](CCSC)C(=O)N[C@@H](CC(C)C)C(=O)NCC(=O)N[C@@H](CCCCN)C(=O)N[C@@H](CC(C)C)C(=O)N[C@@H](Cc1ccccc1)C(N)=O)C(C)C [compound 5, F-L-S-a-I-V-a-M-L-G-K-L-F] (H-FLS[dA]IV[dA]MLGKLF-NH2)",Cytotoxicity against 3T3 cell line (in words),[1],no cytotoxicity
same,IC50 at 48 h,[2],> 100 µM
same,IC50,"H460 cells; human, 48 h",37.3 ± 3.5 µM
same,IC50,"[3]; human, 24 h",> 100 µM
same,IC50,"HeLa cells; human, 48 h",> 100 µM
same,IC50,"[4]; human, 48 h",29.5 ± 6.03 µM
"CC[C@H](C)[C@H](NC(=O)CNC(=O)[C@H](CO)NC(=O)[C@H](CC(C)C)NC(=O)[C@@H](N)Cc1ccccc1)C(=O)N[C@H](C(=O)NCC(=O)N[C@@H](CCSC)C(=O)N[C@@H](CC(C)C)C(=O)N[C@H](C)C(=O)N[C@@H](CCCCN)C(=O)N[C@@H](CC(C)C)C(=O)N[C@@H](Cc1ccccc1)C(N)=O)C(C)C [peptide 4, F-L-S-G-I-V-G-M-L-a-K-L-F] (H-FLSGIVGML[dA]KLF-NH2)",Cytotoxicity against 3T3 cell line (in words),[1],cytotoxic
same,IC50,[1]; mouse,16 ± 3.7 µM
same,IC50,[2],16 to 24 µM
same,IC50,"H460 cells; MTT, 48 hours, listed as SEQ ID NO: 4, read-out: Cytotoxicity IC50, H460",16 to 24 µM
same,IC50,H460 cells; [8],24.3 ± 0.84 µM
same,IC50,[3]; [9],> 100 µM
same,IC50,"HeLa cells; MTT, 48 hours, listed as SEQ ID NO: 4, read-out: Cytotoxicity IC50, HeLa",16 to 24 µM
same,IC50,HeLa cells; [10],22.7 ± 0.86 µM
same,IC50,"[4]; MTT, 48 hours, listed as SEQ ID NO: 4, read-out: Cytotoxicity IC50, MCF-7",16 to 24 µM
same,IC50,[4]; [11],16.2 ± 2.2 µM
"[A^2,6,9, K^3] temporin-SHa [[A^2,6,9, K^3] SHa]",Cytotoxicity on THP-1 monocytes (literature),THP-1 monocytes,inactive
same,Cytotoxicity on HepG2 cells (literature),HepG2 cells,inactive
same,Antiparasitic activity (literature),[5],lack the antibacterial and antiparasitic activity
same,Antimicrobial / antibacterial activity (literature),[6],lack the antibacterial and antiparasitic activity
"CC[C@H](C)[C@H](NC(=O)CNC(=O)[C@H](CO)NC(=O)[C@H](CC(C)C)NC(=O)[C@@H](N)Cc1ccccc1)C(=O)N[C@H](C(=O)NCC(=O)N[C@@H](CCSC)C(=O)N[C@@H](CC(C)C)C(=O)N[C@H](C)C(=O)N[C@@H](CCCCN)C(=O)N[C@@H](CC(C)C)C(=O)N[C@@H](Cc1ccccc1)C(=O)N[C@@H](CCCCNC(=O)[C@H](CCCCNC(=O)[C@H](CC(C)C)NC(=O)[C@H](Cc1ccccc1)NC(=O)[C@H](CCCCN)NC(=O)[C@H](CCC(N)=O)NC(=O)[C@H](Cc1ccc(O)cc1)NC(=O)[C@H](C)NC(=O)[C@H](C)NC(=O)[C@H](CCC(=O)O)NC(=O)[C@H](CC(C)C)NC(=O)[C@@H](N)Cc1c[nH]c2ccccc12)NC(=O)[C@H](Cc1ccccc1)NC(=O)[C@H](CC(C)C)NC(=O)[C@H](CCCCN)NC(=O)[C@@H](C)NC(=O)[C@H](CC(C)C)NC(=O)[C@H](CCSC)NC(=O)CNC(=O)[C@@H](NC(=O)[C@@H](NC(=O)CNC(=O)[C@H](CO)NC(=O)[C@H](CC(C)C)NC(=O)[C@@H](N)Cc1ccccc1)[C@@H](C)CC)C(C)C)C(N)=O)C(C)C [conjugate 8] (I: H-FLSGIVGML[dA]KLFK-NH2 / II: H-FLSGIVGML[dA]KLFK / III: H-WLEAAYQKFL; amide I:14-II:C, II:14-III:C (inferred); N-terminus assumed)",Cytotoxicity against 3T3 cell line (in words),[1],no cytotoxicity
same,IC50 at 48 h,[2],> 100 µM
same,Activity against H460 cell line (in words),H460 cells; MTT,active
same,IC50,"H460 cells; human, 48 h",14.3 ± 0.7 µM
same,IC50,"[3]; human, 24 h",> 100 µM
same,Activity against HeLa cell line (in words),HeLa cells; MTT,active
same,IC50,"HeLa cells; human, 48 h",8.7 ± 0.65 µM
same,IC50,"[4]; human, 48 h",1.7 µM
"CC[C@H](C)[C@H](NC(=O)[C@@H](C)NC(=O)[C@H](CO)NC(=O)[C@H](CC(C)C)NC(=O)[C@@H](N)Cc1ccccc1)C(=O)N[C@H](C(=O)NCC(=O)N[C@@H](CCSC)C(=O)N[C@@H](CC(C)C)C(=O)NCC(=O)N[C@@H](CCCCN)C(=O)N[C@@H](CC(C)C)C(=O)N[C@@H](Cc1ccccc1)C(N)=O)C(C)C [compound 2, F-L-S-a-I-V-G-M-L-G-K-L-F] (H-FLS[dA]IVGMLGKLF-NH2)",Cytotoxicity against 3T3 cell line (in words),[1],inactive
same,IC50,[2],> 100 µM
same,IC50,H460 cells; [8],> 100 µM
same,IC50,[3]; [9],> 100 µM
same,IC50,HeLa cells; [10],> 100 µM
same,IC50,[4]; [11],17.9 ± 1.1 µM
"CC[C@H](C)[C@H](NC(=O)CNC(=O)[C@H](CO)NC(=O)[C@H](CC(C)C)NC(=O)[C@@H](N)Cc1ccccc1)C(=O)N[C@H](C(=O)N[C@H](C)C(=O)N[C@@H](CCSC)C(=O)N[C@@H](CC(C)C)C(=O)NCC(=O)N[C@@H](CCCCN)C(=O)N[C@@H](CC(C)C)C(=O)N[C@@H](Cc1ccccc1)C(N)=O)C(C)C [compound 3, F-L-S-G-I-V-a-M-L-G-K-L-F] (H-FLSGIV[dA]MLGKLF-NH2)",Cytotoxicity against 3T3 cell line (in words),[1],inactive
same,IC50 at 48 h,[2],> 100 µM
same,IC50,"H460 cells; human, 48 h",> 100 µM
same,IC50,"[3]; human, 24 h",> 100 µM
same,IC50,"HeLa cells; human, 48 h",> 100 µM
same,IC50,"[4]; human, 48 h",22.4 ± 2.2 µM
"[A^2,6,9] temporin-SHa [[A^2,6,9] SHa]",Cytotoxicity on THP-1 monocytes (literature),THP-1 monocytes,inactive
same,Cytotoxicity on HepG2 cells (literature),HepG2 cells,inactive
same,Antiparasitic activity (literature),[5],lack the antibacterial and antiparasitic activity
same,Antimicrobial / antibacterial activity (literature),[6],lack the antibacterial and antiparasitic activity
"COc1cccc2c1C(=O)c1c(O)c3c(c(O)c1C2=O)C[C@@](O)(C(=O)CO)C[C@@H]3O[C@H]1C[C@H](N)[C@H](O)[C@H](C)O1 [Doxorubicin, reference compound]",IC50,"HeLa cells; Homo sapiens, HeLa, 48 h, read-out: Cytotoxicity IC50, HeLa",5.7 ± 0.36 µM
same,IC50,"[4]; Homo sapiens, MCF7, 48 h, read-out: Cytotoxicity IC50, MCF-7",1.6 ± 0.2 µM
[K^3] temporin-SHa,Antimicrobial / antibacterial activity (literature),[6],more potent antimicrobial activity than temporin-SHa
"CC[C@H](C)[C@H](NC(=O)CNC(=O)[C@H](CO)NC(=O)[C@H](CC(C)C)NC(=O)[C@@H](N)Cc1ccccc1)C(=O)N[C@H](C(=O)NCC(=O)N[C@@H](CCSC)C(=O)N[C@@H](CC(C)C)C(=O)NCC(=O)N[C@@H](CCCCN)C(=O)N[C@@H](CC(C)C)C(=O)N[C@@H](Cc1ccccc1)C(N)=O)C(C)C [peptide 1, F-L-S-G-I-V-G-M-L-G-K-L-F, reference compound] (H-FLSGIVGMLGKLF-NH2)",Cytotoxicity on THP-1-derived macrophages (literature),[7],low cytotoxicity
same,IC50,[2],73.3 ± 0.07 µM
same,Cytotoxicity on THP-1 monocytes (literature),THP-1 monocytes,low cytotoxicity
same,Antiparasitic activity (literature),[5],antiparasitic activity
same,Cytotoxicity on human erythrocytes (literature),human erythrocytes,low cytotoxicity
same,Antimicrobial / antibacterial activity (literature),[6],potent inhibitor
same,Activity against H460 cell line (in words),H460 cells; MTT,active
same,IC50,H460 cells; [8],34.5 ± 1.5 µM
same,Cytotoxicity on fibroblasts (literature),fibroblasts,no cytotoxicity
same,Activity against DoHH2 cell line (in words),[3]; Alamar blue,no cytotoxicity
same,IC50,[3]; [9],> 100 µM
same,Activity against HeLa cell line (in words),HeLa cells; MTT,active
same,IC50,HeLa cells; [10],18.4 ± 0.92 µM
same,Activity against MCF-7 cell line (in words),[4]; MTT,active
same,IC50,[4]; [11],14.5 ± 0.57 µM
"WLEAAYQKFL (not fully specified) [peptide A, breast cancer targeting peptide ligand]",Binding to MCF-7 cells,MCF-7 cells,strong binding
